From patent publication US20230310628A1, “Multi-Targeted Multi-Valent Ligand Drug Particles for the Treatment and Prevention of Diseases and Conditions” (priority 2017, published 2023) come the findings set out here.

In the series the test system is cell lines expressing HER2 and EGFR. Description: Cytotoxicity studies in vitro, free versus liposomal doxorubicin. It counts as cell-based, human. The note with it: compared with liposomal doxorubicin.

Method: Cytotoxicity studies were conducted with doxorubicin as it is the staple drug for liposomal delivery.
For cytotoxicity studies, cells cultured overnight in 96-well plates (10*10^3 cells/well) were incubated with doxorubicin-load liposomes (100 μg/ml with 1/3 dilutions) at 37° C. for 4 hr, washed with PBS, and grown in medium for 3 additional days. Cell viability was analyzed by MTT assay.

Take `COc1cccc2c1C(=O)c1c(O)c3c(c(O)c1C2=O)C[C@@](O)(C(=O)CO)C[C@@H]3O[C@H]1C[C@H](N)[C@H](O)[C@H](C)O1` [free doxorubicin, doxorubicin]: the “effectiveness in cytotoxicity studies in vitro” value is on record as “most effective”.
